Measurements reported in ChEMBL document CHEMBL3988442, “University of Dundee, Small-Polar-MMV Screening Library” (2021).
Where “and” joins values, the source holds several entries; their conditions need not be identical. Identical values can stand only once.

What was measured:
[1] = microbe, parasite or virus in culture; conditions: Mycobacterium tuberculosis, 96 h, read-out: pIC50 (converted)
[2] = microbe, parasite or virus in culture; conditions: Mycobacterium tuberculosis, 72 h, read-out: pIC50 (converted)
[3] = biological target: T1, Histidine--tRNA ligase (Leishmania infantum, UniProt A4I591); experiment: Leishmania infantum Histidine tRNA synthetase (LdHisRS); type: functional
T1 sequence (A4I591 whole entry): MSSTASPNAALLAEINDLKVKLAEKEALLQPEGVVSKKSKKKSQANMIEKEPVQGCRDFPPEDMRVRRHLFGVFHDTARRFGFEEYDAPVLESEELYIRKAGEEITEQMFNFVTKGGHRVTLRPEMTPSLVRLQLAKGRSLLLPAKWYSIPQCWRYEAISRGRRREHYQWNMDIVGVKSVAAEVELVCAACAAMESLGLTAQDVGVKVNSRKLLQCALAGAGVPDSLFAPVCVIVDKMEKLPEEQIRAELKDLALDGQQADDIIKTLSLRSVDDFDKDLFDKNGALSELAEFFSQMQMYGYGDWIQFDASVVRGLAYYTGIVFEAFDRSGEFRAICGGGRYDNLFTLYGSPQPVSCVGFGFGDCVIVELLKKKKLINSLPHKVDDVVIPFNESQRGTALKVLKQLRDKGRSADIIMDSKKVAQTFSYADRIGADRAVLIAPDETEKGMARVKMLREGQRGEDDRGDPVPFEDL

[4] = tested on: Plasmodium falciparum; experiment: Calibr Malaria Delayed Death Assay SOP; type: functional, organism-based; conditions: for IC50: Plasmodium falciparum

Structure (SMILES)	IC50 [3]	other results
Cc1nc(CN2CCc3nc(N4CCCC4)nc(NC(C)C)c3C2)cs1	14.7 µM and 12.1 µM	IC50 [1]: 25.4 µM; IC50 [2]: 41.6 µM
Cc1nc(CN2CCc3nc(NC(C)C)nc(C)c3C2)cs1	64.5 µM and 57.7 µM	IC50 [1]: > 50.1 µM; IC50 [2]: > 50.1 µM
O=C(c1cc(-c2ccco2)cs1)N1CCCC1	> 100 µM and 53 µM	IC50 [1]: 33 µM; IC50 [2]: 8 µM
NC(=O)C1=NC2=NS(=O)(=O)c3ccccc3N2N1Cc1ccc(Cl)cc1	62.9 µM and 43.4 µM	IC50 [1]: 26.4 µM; IC50 [2]: 45.4 µM
COc1ccccc1C1(CNCc2cccc(O)c2)CCOCC1	1.13 µM and 1.34 µM (2×) and 1.43 µM	pIC50 [4]: 6.352; IC50 [4]: 0.31 µM
COc1ccccc1C1(CNCc2cccc(C#N)c2)CCOCC1	70.8 µM and 65.6 µM	pIC50 [4]: 5.883; IC50 [4]: 1.49 µM
Brc1ccc(C2(CNCc3cc[nH]c3)CCOCC2)cc1	39.5 µM and 23.5 µM	pIC50 [4]: 6.139; IC50 [4]: 0.542 µM
CSc1ccc(C(CN)N2CCc3sccc3C2)cc1 (centres undefined)	73.8 µM and 73.2 µM	IC50 [1]: 24.1 µM; IC50 [2]: 27.4 µM
COc1cccn(CC(=O)N(C)CCC2CCOCC2)c1=O	> 100 µM	IC50 [1]: > 50.1 µM
c1ccc(Oc2ccc(OC34CCCN(CC3)C4)cc2)cc1 (centres undefined)	39.4 µM and 40.6 µM	IC50 [1]: 40.7 µM; IC50 [2]: 23.7 µM
CN(C)c1nc2c(c(N3CCc4ccccc4C3)n1)CCNC2	28.8 µM and 22.8 µM	IC50 [1]: > 50.1 µM; IC50 [2]: 31.3 µM
CCCc1nc(N(C)CCN2CCCCCC2)c2cnn(C)c2n1	41.4 µM and 39.5 µM	IC50 [1]: > 50.1 µM; IC50 [2]: 28.3 µM
COCc1ncc(-c2nccn2CCS(C)(=O)=O)cn1	> 100 µM	–
Cc1ccccc1N1CCN(c2nc(N(C)C)nc3c2CCNC3)CC1	55.3 µM and 91.3 µM	IC50 [1]: 27 µM; IC50 [2]: 26 µM
COCCCN(C)C(=O)Cn1cccc(OC)c1=O	66 µM and 57.5 µM	–
O=C(c1cncc(N2CCC3(CCCNC3)C2)n1)N1CCCC1 (centres undefined)	> 100 µM	–
c1ccc(-c2cc(CN3C[C@@H]4CC[C@H](C3)N(CC3CCC3)C4)on2)cc1	32.5 µM and 36.9 µM	IC50 [1]: 13.3 µM; IC50 [2]: 8.42 µM
O=C(O)C1c2nc[nH]c2CCN1CC(c1ccccc1)c1ccccc1 (centres undefined)	6.21 µM and 7.09 µM	–
c1ccc2c(c1)CCN(c1nc(-c3ccncc3)nc3c1CCNC3)C2	9.69 µM and 11.1 µM	IC50 [1]: > 50.1 µM; IC50 [2]: 49.7 µM
CCCN1C[C@H]2CC[C@@H]1CN(Cc1ccc(-n3cccn3)cc1)C2	33.2 µM and 35 µM	IC50 [1]: 21.4 µM; IC50 [2]: 4.84 µM
CN(CC1CCN(c2ccccc2)C1)c1ccc(Cn2ccnc2)cn1 (centres undefined)	91.9 µM and 98.7 µM	IC50 [1]: 27.4 µM; IC50 [2]: 27.7 µM
CCCN1CCC(Cc2nn3c(C(C)C)nnc3s2)CC1	> 100 µM	–
CCCc1ccc(OC23CCCN(CC2)C3)c(OC)c1 (centres undefined)	38 µM and 39.5 µM	IC50 [1]: 22.7 µM; IC50 [2]: 23.5 µM
CN(C)c1ncc(-c2c(-c3ccccc3)ncn2C(CO)C(=O)O)cn1 (centres undefined)	> 100 µM	–
CC(NC(=O)c1coc(COc2cccc(F)c2)n1)c1nnc(N)s1 (centres undefined)	98.7 µM and 60.1 µM	–
c1ccc(Oc2cccc(OC34CCCN(CC3)C4)c2)cc1 (centres undefined)	53.2 µM and 46.4 µM	IC50 [1]: 15.9 µM; IC50 [2]: 18.1 µM

Structure (SMILES)	IC50 [3]	other results
Cn1ncc(-c2cc(-c3cccc(O)c3)nc(N)c2C#N)c1C1CC1	61.2 µM and 76.8 µM	–
CCOc1ccc(C(=O)N(CCOC)Cc2c(C)nn(CC)c2C)o1	> 100 µM	–
Cc1ccc(C)c(OC(C)C(=O)NCCNc2cccnc2)c1 (centres undefined)	23.4 µM and 28.9 µM	–
COc1cccc(CN2CCN(CC(C)C)C(=O)C2C)c1O (centres undefined)	6.15 µM and 5.67 µM	–
CC1=C(C#N)C(=O)NC(=O)/C1=C\c1c(C)nn(-c2ccc(C)cc2)c1O	58.7 µM and 48 µM	–
CC1=C(C#N)C(=O)NC(=O)/C1=C\c1c(C)nn(-c2ccc(Cl)cc2)c1O	> 100 µM	–
Cc1nccn1-c1cccc(C2CCCN(C3CCCCC3)C2)n1 (centres undefined)	36.7 µM and 33.6 µM	–
NC(=O)C1CCCN(Cc2c(-c3ccco3)[nH]c3ncccc23)C1 (centres undefined)	67.8 µM and 46 µM	–
OC1CCCN(Cc2c(-c3ccco3)[nH]c3ncccc23)C1 (centres undefined)	58.7 µM and 38.5 µM	–
Cn1nc2c(cc1=O)CN(Cc1nc(-c3ccccn3)no1)CC2	> 100 µM	–
Cc1noc(C)c1C(=O)N1CCC(Nc2cccnn2)CC1	> 100 µM	–
Cn1cc(NS(=O)(=O)c2ccc(F)c(F)c2)ccc1=O	> 100 µM	–
Cc1ccccc1-c1noc(CN2CCc3nn(C)c(=O)cc3C2)n1	25.2 µM and 21.2 µM	–
Cc1ccc(-c2noc(CN3CCc4nn(C)c(=O)cc4C3)n2)cc1	29.8 µM and 30.4 µM	–
Cn1nc2c(cc1=O)CN(Cc1nc(-c3ccco3)no1)CC2	11.8 µM and 14 µM	–
CC(=O)NCC1CCN(c2cc(C)nc(-c3ccncc3)n2)CC1	64 µM and > 100 µM	–
CC(=O)N(Cc1noc(C)n1)C1CCN(Cc2cccc(C#N)c2)C1 (centres undefined)	> 100 µM	–
CC(O)CNC(=O)NCc1ccc(N2CCNC(=O)C2)cc1 (centres undefined)	> 100 µM and 58.3 µM	–
CC(C(=O)NCc1ccc(N2CCNC(=O)C2)cc1)n1cncn1 (centres undefined)	60.1 µM and 77.1 µM	–
c1ccc(Cn2cc(CNCC3CCCN3c3cccnn3)cn2)cc1 (centres undefined)	> 100 µM	–
O=C(CN1CCc2cncnc2C1)NCCOc1ccccc1	74.1 µM and 60.5 µM	–
Cc1nccc(-c2cccc(NCC(=O)N3CCc4sccc4C3)c2)n1	73.8 µM and 68.4 µM	–
c1ccc(-n2ncc(CNCC3CCCN3c3cccnn3)n2)cc1 (centres undefined)	22.3 µM and 27.2 µM	–
Cc1noc(C)c1CN1CCc2nn(C(C)C)c(=O)cc2C1	86 µM and > 100 µM	–
Cc1ncc2c(n1)CN(Cc1nnc(Cc3ccccc3)o1)CC2	48.1 µM and 49.9 µM	–
Cc1ncc2c(n1)CN(Cc1nnc(-c3occc3C)o1)CC2	64.7 µM and 82.6 µM	–

Structure (SMILES)	IC50 [3]	other results
Cc1nnc(NCc2ccccc2Cl)c(C#N)c1C	24.6 µM and 31.1 µM	–
CC(C)c1ncc2c(n1)CN(Cc1nc(Cc3ccccc3)no1)CC2	> 100 µM	–
COc1ccccc1N1CCC(CNCc2cccc(OC)c2OC)C1 (centres undefined)	> 100 µM	–
CC(C(=O)Nc1ccc(N2CCCC2)nc1)n1cncn1 (centres undefined)	> 100 µM	–
c1ccc(-c2cnc(CNC3CCCN(c4cccnn4)C3)o2)cc1 (centres undefined)	43.5 µM and 30.5 µM	–
COc1ccc(-c2nc(CN3CCc4c(ncn4C)C3)cs2)cc1	69.8 µM and 87.5 µM	–
COc1ccc(-c2noc(CN3CCc4cncnc4C3)n2)cc1	> 100 µM	–
CC(C)c1nn(C)c(N(C)C)c1CNCc1ccccc1CN(C)C	> 100 µM	–
COc1cc(CNc2cnn(C)c2)cc2c1OCCO2	> 100 µM	–
Cc1ccc(C(=O)N2CCN(C(=O)NC(C)Cn3ccnc3)CC2)o1 (centres undefined)	> 100 µM	–
O=C(Cc1csc(-c2ccco2)n1)N1CCN(c2cnccn2)CC1	53.2 µM and 34.3 µM	–
CCOc1nnc(CNC2CCCN(c3ccc(C)nn3)C2)s1 (centres undefined)	> 100 µM and 94.7 µM	–
CCCc1nc(CN2CCOC(CNc3cccnn3)C2)cs1 (centres undefined)	45.1 µM and 33.5 µM	–
CCC1CN(CCC(=O)N(C)C)CCN1CCOC (centres undefined)	> 100 µM	–
CC(O)CN1CCN(C(=O)c2ccc(Cn3cccn3)cc2)CC1 (centres undefined)	> 100 µM	–
Cc1csc(N2CCN(C(=O)CCC(=O)c3ccc(C)s3)CC2)n1	> 100 µM	–
COCCOc1ccccc1C(=O)N1CCCCC1c1nccs1 (centres undefined)	51.1 µM and 64.2 µM	–
CCCn1nc2c(cc1=O)CN(CCCN1CCCC1=O)CC2	48.6 µM and 55.3 µM	–
Cc1nc(CN(C)C2CCN(Cc3ccc4ccccc4n3)C2)no1 (centres undefined)	59.9 µM and 39.8 µM	–
Cc1cc(N2CCC(Cc3ccccc3)CC2)nc(-c2ccncc2)n1	25 µM and 18.4 µM	–
Cc1nc(CN2CCCC2c2ccsc2)nc2ccccc12 (centres undefined)	56 µM and 44.1 µM	–
CC(C)c1nc(CC(=O)Nc2nc(CN3CCCCCC3)cs2)cs1	39.8 µM and 33.5 µM	IC50 [1]: 21.2 µM; IC50 [2]: 23.2 µM
Cc1ccc(S(=O)(=O)N2CCc3nc(C4CCNCC4)ncc3C2)cc1	> 100 µM and 97.1 µM	IC50 [1]: 6.39 µM; IC50 [2]: > 50.1 µM
Fc1cccc(N2C[C@H]3CCN(c4cccnc4)C[C@H]3C2)c1	40.6 µM and 35.1 µM	IC50 [1]: > 50.1 µM; IC50 [2]: 45.2 µM
c1cncc(-c2ccc3c(c2)CCC32CCN(Cc3nccs3)CC2)c1	75.2 µM and 52.4 µM	IC50 [1]: 36.3 µM; IC50 [2]: 36.1 µM
Clc1ccc(C2(CNC3=NCCN3)CCCCC2)cc1.I	85 µM and 71.6 µM	pIC50 [4]: 6.717 and 7.044
